In ChEMBL document CHEMBL1133397, “Fused bicyclic Gly-Asp beta-turn mimics with potent affinity for GPIIb-IIIa. Exploration of the arginine isostere” (Bioorg Med Chem Lett, 2000) one finds IC50, AUC and Cmax data, which are given here for twelve compounds.

The species entered for data set [1] is Homo sapiens. The data set is described as follows: The compound was evaluated for reduction of ADP-induced human platelet aggregation response by 50% using PRP assay. It is filed as functional, organism-based.
Data set [2] can be described thus: Blood level after a 10 mg/kg oral dose in rat expressed as AUC was determined. The class given is ADME, organism-based. Details: dose 10 mg/kg, route oral.
Data set [3] can be described thus: Blood level after a 10 mg/kg oral dose in rat expressed as Cmax was determined. Details: dose 10 mg/kg, route oral. It is filed as ADME, organism-based.
In data set [4] the target is Integrin alpha-IIb/beta-3 (Homo sapiens, UniProt P05106+P08514). The data set is described as follows: Inhibition of fibrinogen binding to purified human GPIIb-IIIa in ELISA. The class given is protein-complex assay.

For orientation: IC50 means the concentration that gives 50% inhibition. In general, AUC refers to the area under the concentration-time curve, a measure of exposure. Usually Cmax stands for the highest concentration seen after dosing.

Integrin alpha-IIb/beta-3, sequence (P05106 27-788 limits assumed): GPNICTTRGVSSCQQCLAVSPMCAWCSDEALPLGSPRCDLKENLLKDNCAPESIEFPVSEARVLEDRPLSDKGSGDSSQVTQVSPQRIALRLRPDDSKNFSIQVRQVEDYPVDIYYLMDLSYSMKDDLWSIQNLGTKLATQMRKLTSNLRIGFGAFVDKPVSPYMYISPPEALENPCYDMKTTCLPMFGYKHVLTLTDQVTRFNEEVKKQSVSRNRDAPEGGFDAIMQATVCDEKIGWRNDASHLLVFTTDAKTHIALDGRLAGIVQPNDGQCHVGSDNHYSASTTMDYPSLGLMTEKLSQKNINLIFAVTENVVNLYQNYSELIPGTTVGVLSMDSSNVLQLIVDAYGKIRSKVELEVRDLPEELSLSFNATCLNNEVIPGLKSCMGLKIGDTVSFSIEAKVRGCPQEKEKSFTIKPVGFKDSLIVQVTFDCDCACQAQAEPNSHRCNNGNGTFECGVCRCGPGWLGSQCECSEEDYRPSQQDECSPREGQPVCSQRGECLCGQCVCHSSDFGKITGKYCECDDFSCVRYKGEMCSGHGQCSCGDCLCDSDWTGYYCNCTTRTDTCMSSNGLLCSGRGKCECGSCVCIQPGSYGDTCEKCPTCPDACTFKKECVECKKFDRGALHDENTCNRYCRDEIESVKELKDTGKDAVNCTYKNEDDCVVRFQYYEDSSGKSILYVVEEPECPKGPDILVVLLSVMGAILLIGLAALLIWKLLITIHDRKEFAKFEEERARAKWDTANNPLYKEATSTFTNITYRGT
Integrin alpha-IIb/beta-3, sequence (P08514 32-887 limits assumed): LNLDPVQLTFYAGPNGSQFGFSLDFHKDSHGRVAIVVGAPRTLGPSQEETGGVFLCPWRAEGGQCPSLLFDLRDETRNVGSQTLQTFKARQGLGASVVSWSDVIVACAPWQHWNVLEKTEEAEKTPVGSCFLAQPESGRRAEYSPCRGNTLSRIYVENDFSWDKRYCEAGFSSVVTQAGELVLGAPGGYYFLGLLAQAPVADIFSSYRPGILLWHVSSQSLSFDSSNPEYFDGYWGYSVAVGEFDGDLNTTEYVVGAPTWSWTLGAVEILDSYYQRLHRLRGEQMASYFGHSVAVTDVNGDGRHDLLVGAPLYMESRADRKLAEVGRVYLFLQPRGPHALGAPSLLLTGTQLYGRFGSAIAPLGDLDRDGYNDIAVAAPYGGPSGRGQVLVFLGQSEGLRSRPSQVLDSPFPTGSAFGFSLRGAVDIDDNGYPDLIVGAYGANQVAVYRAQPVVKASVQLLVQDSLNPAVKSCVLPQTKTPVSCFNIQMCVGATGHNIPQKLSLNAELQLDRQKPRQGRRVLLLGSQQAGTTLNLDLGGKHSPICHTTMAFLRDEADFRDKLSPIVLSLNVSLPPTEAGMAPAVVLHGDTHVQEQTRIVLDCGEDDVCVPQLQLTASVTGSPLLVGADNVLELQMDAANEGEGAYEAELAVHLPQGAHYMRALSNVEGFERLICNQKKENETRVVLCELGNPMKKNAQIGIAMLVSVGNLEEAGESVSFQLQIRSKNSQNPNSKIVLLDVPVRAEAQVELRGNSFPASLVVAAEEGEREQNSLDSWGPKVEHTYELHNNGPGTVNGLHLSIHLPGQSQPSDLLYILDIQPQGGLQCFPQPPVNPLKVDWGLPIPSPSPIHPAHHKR
Integrin alpha-IIb/beta-3, sequence (P08514 891-1039 limits assumed): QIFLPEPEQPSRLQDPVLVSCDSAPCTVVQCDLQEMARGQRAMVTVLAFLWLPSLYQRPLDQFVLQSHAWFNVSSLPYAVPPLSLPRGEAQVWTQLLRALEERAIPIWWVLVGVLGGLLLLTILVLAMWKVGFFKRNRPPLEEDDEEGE

In the case of `N=C(N)c1cc(F)c(C(=O)Nc2ccc3c(c2)CCC(CC(=O)O)C3=O)c(F)c1` (configuration not stated), the half-maximal inhibitory concentration (IC50) in data set [1] is 240 nM; in data set [4], 5 nM. In data set [2], this compound showed an AUC of 6410 ng·h/mL. This compound also returned a Cmax in data set [3] of 2020 ng/mL.
The matching figures for `N=C(N)c1ccc(C(=O)Nc2ccc3c(c2)CCC(CC(=O)O)C3=O)cn1` (configuration not stated): 220 nM, 9 nM, 3560 ng·h/mL and 1170 ng/mL.
`O=C(O)CC1CCc2cc(NC(=O)CCC3CCNCC3)ccc2C1=O` (configuration not stated): the IC50 in data set [1] turned out to be 910 nM; in data set [4], 71 nM.
For the compound `O=C(O)CC1CCc2cc(NC(=O)COC3CCNCC3)ccc2C1=O` (configuration not stated), the IC50 in data set [1] is 18000 nM.
Regarding `O=C(O)CC1CCc2cc(NC(=O)OCC3CCNCC3)ccc2C1=O` (configuration not stated), the IC50 was 1800 nM in data set [1] and 330 nM in data set [4].
Take `N=C(N)c1ccc(C(=O)Nc2ccc3c(c2)CCC(CC(=O)O)C3=O)c(Cl)c1` (configuration not stated): the IC50 in data set [1] stood at 400 nM. In data set [2], this compound registered an AUC of 10400 ng·h/mL. In data set [3], this compound gave a Cmax of 3110 ng/mL.
Regarding `O=C(O)CC1CCc2cc(NC(=O)/C=C/C3CCNCC3)ccc2C1=O` (configuration not stated), the figures for the IC50 in data set [1] and in data set [4] were 360 nM and 26 nM, respectively. For the same compound, the AUC in data set [2] is 8140 ng·h/mL. For the same compound, in data set [3], the Cmax turned out to be 2700 ng/mL.
For the compound `O=C(O)CC1CCc2cc(NCCCC3CCNCC3)ccc2C1=O` (configuration not stated), the IC50 in data set [1] came to 5500 nM; in data set [4], 610 nM.
In data set [2], `N=C(N)c1ccc(C(=O)Nc2ccc3c(c2)CCC(CC(=O)O)C3=O)cc1` (configuration not stated) showed an AUC of 11200 ng·h/mL. In data set [3], this compound registered a Cmax of 3630 ng/mL.
Take `N=C(N)c1ccc(C(=O)Nc2ccc3c(c2)CCC(CC(=O)O)C3=O)s1` (configuration not stated): the IC50 in data set [1] amounted to 9000 nM; in data set [4], 210 nM.
For `N=C(N)c1ccc(C(=O)Nc2ccc3c(c2)CCC(CC(=O)O)C3=O)c(C(F)(F)F)c1` (configuration not stated) the same measures were 2000 nM and 72 nM.
On to `N=C(N)c1ccc(C(=O)Nc2ccc3c(c2)CCC(CC(=O)O)C3=O)c(F)c1` (configuration not stated), for which the IC50 in data set [1] stood at 100 nM; in data set [4] it was 3 nM. The compound further gave an AUC in data set [2] of 11900 ng·h/mL. The same compound gave a Cmax in data set [3] of 4020 ng/mL.
